Assay results published in US9884063B2, “Amido-substituted azole compounds” (Bayer Pharma Aktiengesellschaft, priority 2014, dated 2018).
pIC50: −log10 of the molar value.

Molecular target: T1, TNKS1 (Homo sapiens, UniProt O95271)
T1 sequence (O95271 1-1327): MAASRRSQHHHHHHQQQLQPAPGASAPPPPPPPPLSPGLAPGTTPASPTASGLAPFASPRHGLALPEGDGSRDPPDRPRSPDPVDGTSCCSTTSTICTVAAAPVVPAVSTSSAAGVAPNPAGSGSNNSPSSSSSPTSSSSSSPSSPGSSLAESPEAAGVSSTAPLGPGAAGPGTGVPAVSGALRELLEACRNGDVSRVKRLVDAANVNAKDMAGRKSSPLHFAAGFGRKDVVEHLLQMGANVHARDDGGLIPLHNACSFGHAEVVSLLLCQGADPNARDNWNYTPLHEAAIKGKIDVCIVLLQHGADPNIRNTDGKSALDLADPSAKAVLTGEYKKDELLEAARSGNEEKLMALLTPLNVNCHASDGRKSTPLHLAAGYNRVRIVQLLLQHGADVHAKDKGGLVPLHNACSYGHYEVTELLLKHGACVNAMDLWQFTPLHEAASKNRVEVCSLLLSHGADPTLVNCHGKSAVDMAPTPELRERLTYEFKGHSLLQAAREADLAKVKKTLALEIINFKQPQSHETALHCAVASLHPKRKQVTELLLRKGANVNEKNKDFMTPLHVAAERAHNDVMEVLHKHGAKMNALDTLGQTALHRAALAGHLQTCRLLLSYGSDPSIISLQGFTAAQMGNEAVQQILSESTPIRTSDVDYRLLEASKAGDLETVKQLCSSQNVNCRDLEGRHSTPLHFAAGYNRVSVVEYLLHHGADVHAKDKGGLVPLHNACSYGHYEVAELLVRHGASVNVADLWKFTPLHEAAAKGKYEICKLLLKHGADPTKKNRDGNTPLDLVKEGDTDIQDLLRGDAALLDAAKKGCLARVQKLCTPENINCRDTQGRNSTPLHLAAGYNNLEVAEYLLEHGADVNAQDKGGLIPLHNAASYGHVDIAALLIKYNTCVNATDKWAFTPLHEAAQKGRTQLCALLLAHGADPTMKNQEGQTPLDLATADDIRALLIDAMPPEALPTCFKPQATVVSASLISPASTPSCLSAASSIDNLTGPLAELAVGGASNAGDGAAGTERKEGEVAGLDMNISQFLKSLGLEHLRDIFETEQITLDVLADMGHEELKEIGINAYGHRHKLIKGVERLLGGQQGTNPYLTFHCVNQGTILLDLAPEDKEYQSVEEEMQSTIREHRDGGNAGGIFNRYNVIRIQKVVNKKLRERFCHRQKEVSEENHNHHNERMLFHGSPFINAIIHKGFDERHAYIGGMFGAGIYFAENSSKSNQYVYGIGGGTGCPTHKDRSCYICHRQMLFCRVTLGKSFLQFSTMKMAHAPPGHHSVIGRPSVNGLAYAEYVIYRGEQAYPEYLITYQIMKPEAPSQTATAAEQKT
Test: Modified TNKS1 Assay 2 (auto-parsylation, [3H]-NAD+ SPA)
Assay type: biochemical
Conditions: 6 nM TNKS1, 96 well
Description: The potency of selected compounds according to the invention was assessed applying an modified in vitro inhibition assay. Here, the TNKS1 catalyzed NAD^+-dependent ribosylation of the enzyme itself (auto-parsylation) was detected using [^3H]-NAD^+ as substrate and applying the scintillation proximity assay (SPA) method to detect tritium-labeled, parsylated TNKS1. The intensity of the readout signal is proportional to the incorporated [^3H]-NAD^+. Inhibition of TNKS1 leads to a decreased incorporation of [^3H]-NAD^+ and consequently to a lower readout signal intensity. The concentration of a test compound which inhibits the enzyme activity by 50% (corresponds to half of the normed readout signal intensity) is reported as IC50.
The assay was conducted in a 96 well MTP format with the identical TNKS1 enzyme sample and NAD^+ sample as in the histone ribosylation assay with the following modifications: TNKS1 enzyme sample was diluted with a modified assay buffer (50 mM MES pH 7.0, 1 mM DTT, 0.01% Triton X-100) to a final concentration of 6 nM TNKS1 and 10×NAD^+ solution was diluted with the modified assay buffer (s. above) to a final 0.445×NAD^+ solution doped with 100 Bq/ul [^3H]-NAD^+[Catalog #NET443H050UC, Perkin Elmer, Waltham, Mass., USA]. Substrate solution (10 ul) was incubated with different test compound concentrations (2.5 ul in 10% DMSO in modified assay buffer) or control (2.5 ul 10% DMSO in modified assay buffer only) and enzyme (10 ul) over night at room temperature. Incorporated tritium was measured after addition of 50 ul SPA beads (1 mg/ml) [Catalog #RPNQ0095 20 mg/ml, Perkin Elmer, Waltham, Mass., USA; diluted 1:10 with Dulbecco's phosphate buffered saline, PBS Catalog #D8537, Sigma-Aldrich, Steinheim, Germany] and detection of the photon emission with a beta count plate reader [Wallac MicroBeta®, Perkin Elmer, Waltham, Mass., USA].

SMILES | pIC50
O=C(Nc1ccc(NC(=O)c2nc[nH]c2C(=O)NCCN2CCCCC2)cc1)c1ccc(F)cc1Br [Example 216, N^4-{4-[(2-bromo-4-fluorobenzoyl)amino]phenyl}-N^5-[2-(piperidin-1-yl)ethyl]-1H-imidazole-4,5-dicarboxamide] | 8.15
CN(C)CCNC(=O)c1[nH]cnc1C(=O)Nc1ccc(NC(=O)c2ccc(F)cc2Br)cc1 [Example 217, N^4-{4-[(2-bromo-4-fluorobenzoyl)amino]phenyl}-N^5-[2-(dimethylamino)ethyl]-1H-imidazole-4,5-dicarboxamide] | 8.00
O=C(Nc1ccc(NC(=O)c2ocnc2C(=O)NCCN2CCC(F)(F)CC2)cc1)c1ccc(F)cc1Cl [Example 218, N^5-{4-[(2-chloro-4-fluorobenzoyl)amino]phenyl}-N^4-[2-(4,4-difluoropiperidin-1-yl)ethyl]-1,3-oxazole-4,5-dicarboxamide] | 7.15
O=C(Nc1ccc(NC(=O)c2nc[nH]c2C(=O)NCCN2CCCC(F)C2)cc1)c1ccc(F)cc1Cl (stereo not shown) [Example 226, N^4-{4-[(2-chloro-4-fluorobenzoyl)amino]phenyl}-N^5-[2-(3-fluoropiperidin-1-yl)ethyl]-1H-imidazole-4,5-dicarboxamide] | 8.40
O=C(Nc1ccc(NC(=O)c2nc[nH]c2C(=O)NC2CCOC2)cc1)c1ccc(F)cc1Cl (stereo not shown) [Example 236, N^4-{4-[(2-chloro-4-fluorobenzoyl)amino]phenyl}-N^5-(tetrahydrofuran-3-yl)-1H-imidazole-4,5-dicarboxamide] | 7.52
CNC(=O)c1nc[nH]c1C(=O)Nc1ccc(NC(=O)c2ccccc2O)cc1 [Example 239, N^5-{4-[(2-hydroxybenzoyl)amino]phenyl}-N^4-methyl-1H-imidazole-4,5-dicarboxamide] | < 5.00
CNC(=O)c1nc[nH]c1C(=O)Nc1ccc(NC(=O)c2cc(OC)c(OC)cc2Cl)cc1 [Example 240, N^5-{4-[(2-chloro-4,5-dimethoxybenzoyl)amino]phenyl}-N^4-methyl-1H-imidazole-4,5-dicarboxamide] | 8.10
CNC(=O)c1nc[nH]c1C(=O)Nc1ccc(NC(=O)c2ccccc2C(F)F)cc1 [Example 241, N^5-(4-{[2-(difluoromethyl)benzoyl]amino}phenyl)-N^4-methyl-1H-imidazole-4,5-dicarboxamide] | 5.60
CNC(=O)c1nc[nH]c1C(=O)Nc1ccc(NC(=O)c2cc(F)c(F)cc2Cl)cc1 [Example 242, N^5-{4-[(2-chloro-4,5-difluorobenzoyl)amino]phenyl}-N^4-methyl-1H-imidazole-4,5-dicarboxamide] | 7.70
CNC(=O)c1nc[nH]c1C(=O)Nc1ccc(NC(=O)c2ccccc2OC(F)(F)F)cc1 [Example 243, N^4-methyl-N^5-(4-{[2-(trifluoromethoxy)benzoyl]amino}phenyl)-1H-imidazole-4,5-dicarboxamide] | < 5.00
CNC(=O)c1nc[nH]c1C(=O)Nc1ccc(NC(=O)c2ccc(C)cc2Cl)cc1 [Example 244, N^5-{4-[(2-chloro-4-methylbenzoyl)amino]phenyl}-N^4-methyl-1H-imidazole-4,5-dicarboxamide] | 7.40
CNC(=O)c1nc[nH]c1C(=O)Nc1ccc(NC(=O)c2ncccc2Cl)cc1 [Example 247, N^5-(4-{[(3-chloropyridin-2-yl)carbonyl]amino}phenyl)-N^4-methyl-1H-imidazole-4,5-dicarboxamide] | 6.04
CNC(=O)c1nc[nH]c1C(=O)Nc1ccc(NC(=O)c2cc(OC)ccc2Cl)cc1 [Example 248, N^5-{4-[(2-chloro-5-methoxybenzoyl)amino]phenyl}-N^4-methyl-1H-imidazole-4,5-dicarboxamide] | 6.62
CCOc1ccc(C(=O)Nc2ccc(NC(=O)c3[nH]cnc3C(=O)NC)cc2)c(Cl)c1 [Example 250, N^5-{4-[(2-chloro-4-ethoxybenzoyl)amino]phenyl}-N^4-methyl-1H-imidazole-4,5-dicarboxamide] | 6.64
CNC(=O)c1nc[nH]c1C(=O)Nc1ccc(NC(=O)c2ccc(OC(F)F)cc2F)cc1 [Example 251, N^5-(4-{[4-(difluoromethoxy)-2-fluorobenzoyl]amino}phenyl)-N^4-methyl-1H-imidazole-4,5-dicarboxamide] | < 5.00
CNC(=O)c1nc[nH]c1C(=O)Nc1ccc(NC(=O)c2cccc(OC)c2Cl)cc1 [Example 252, N^5-{4-[(2-chloro-3-methoxybenzoyl)amino]phenyl}-N^4-methyl-1H-imidazole-4,5-dicarboxamide] | 5.03
CNC(=O)c1nc[nH]c1C(=O)Nc1ccc(NC(=O)c2ccc(OC(F)(F)F)cc2F)cc1 [Example 253, N^5-(4-{[2-fluoro-4-(trifluoromethoxy)benzoyl]amino}phenyl)-N^4-methyl-1H-imidazole-4,5-dicarboxamide] | < 5.00
CNC(=O)c1nc[nH]c1C(=O)Nc1ccc(NC(=O)c2cnccc2Cl)cc1 [Example 254, N^5-(4-{[(4-chloropyridin-3-yl)carbonyl]amino}phenyl)-N^4-methyl-1H-imidazole-4,5-dicarboxamide] | 6.24
CCS(=N)(=O)c1ccc(C(=O)Nc2ccc(NC(=O)c3[nH]cnc3C(=O)NC)cc2)c(Cl)c1 (stereo not shown) [Example 255, N^5-(4-{[2-chloro-4-(S-ethylsulfonimidoyl)benzoyl]amino}phenyl)-N^4-methyl-1H-imidazole-4,5-dicarboxamide] | 6.17
CCS(=N)(=O)c1ccc(C(=O)Nc2ccc(NC(=O)c3[nH]cnc3C(=O)NCCN3CCCCC3)cc2)c(Cl)c1 (stereo not shown) [Example 256, N^5-(4-{[2-chloro-4-(S-ethylsulfonimidoyl)benzoyl]amino}phenyl)-N^4-[2-(piperidin-1-yl)ethyl]-1H-imidazole-4,5-dicarboxamide] | 8.05
CCNC(=O)c1nc[nH]c1C(=O)Nc1ccc(NC(=O)c2ccccc2S(C)(=O)=O)cc1 [Example 257, N^4-ethyl-N^5-(4-{[2-(methylsulfonyl)benzoyl]amino}phenyl)-1H-imidazole-4,5-dicarboxamide] | 5.11
CCNC(=O)c1nc[nH]c1C(=O)Nc1ccc(NC(=O)c2ccc(OCC)cc2Cl)cc1 [Example 259, N^5-{4-[(2-chloro-4-ethoxybenzoyl)amino]phenyl}-N^4-ethyl-1H-imidazole-4,5-dicarboxamide] | 6.52
